This note sets out measurements from ChEMBL document CHEMBL5233251, “Epoxide containing molecules: A good or a bad drug design approach” (Eur J Med Chem, 2020).

For one assay, the system named is HCT-15. The assay is described as follows: Antiproliferative activity against human HCT-15 cells assessed as reduction in cell viability incubated for 48 hrs by CytoX cell viability assay. The format is functional, cell-based. As to conditions: HCT-15, 48 h.
A further assay has as its system DU-145. The assay is described as follows: Antiproliferative activity against human DU-145 cells assessed as reduction in cell viability incubated for 48 hrs by CytoX cell viability assay. In kind it is functional, cell-based. The settings on record: DU-145, 48 h.
In the next assay the test system is K562. As to the kind of experiment: Antiproliferative activity against human K562 cells assessed as reduction in cell viability incubated for 48 hrs by CytoX cell viability assay. The format is functional, cell-based. The settings on record: K562, 48 h.
The test system of assay [1] is MCF7. The assay is described as follows: Antiproliferative activity against human MCF7 cells assessed as reduction in cell viability incubated for 48 hrs by CytoX cell viability assay. As to conditions: MCF7, 48 h. In kind it is functional, cell-based.
For the next assay, the system named is HeLa. The assay is described as follows: Antiproliferative activity against human HeLa cells assessed as reduction in cell viability incubated for 48 hrs by CytoX cell viability assay. In kind it is functional, cell-based.
Another assay deals with Hyalomma lusitanicum. As to the kind of experiment: Anti-insecticidal activity against Hyalomma lusitanicum Koch larvae assessed as inhibition of larval growth. In kind it is functional. As to conditions: for LC50: Hyalomma lusitanicum, read-out: LD50 (the source's name).
A further assay relates to HEp-2. As to the kind of experiment: Cytotoxicity against human HEp-2 cells assessed as inhibition of cell growth. The format is functional. The settings on record: read-out: ED50 (the source's name).
Assay [2] concerns Plasmodium falciparum. As to the kind of experiment: Antimalarial activity against Sulfadoxine-resistant Plasmodium falciparum 3D7. The format is functional, organism-based.
Assay [3] has as its system Plasmodium falciparum. As to the kind of experiment: Antimalarial activity against Sulfadoxine-sensitive Plasmodium falciparum FCR3. In kind it is functional, organism-based.
The subject of assay [4] is Plasmodium falciparum. As to the kind of experiment: Antimalarial activity against Sulfadoxine-resistant Plasmodium falciparum W2. The format is functional, organism-based.
Assay [5] deals with Plasmodium falciparum. The assay is described as follows: Antimalarial activity against chloroquine-sensitive Plasmodium falciparum D10 incubated for 48 hrs. As to conditions: D10, 48 h. The format is functional, organism-based.
The subject of assay [6] is Plasmodium falciparum. As to the kind of experiment: Antimalarial activity against Sulfadoxine-sensitive Plasmodium falciparum D6. The format is functional, organism-based.
Assay [7] has as its system Plasmodium falciparum. As to the kind of experiment: Antimalarial activity against Sulfadoxine-sensitive Plasmodium falciparum HB3. The format is functional, organism-based.
Assay [8] deals with Plasmodium falciparum. The assay is described as follows: Antimalarial activity against […] incubated for 48 hrs. In kind it is functional, organism-based. The settings on record: K1, 48 h.
Assay [9] is described as follows: Induction of apoptosis in human multiple myeloma cell. The format is functional, cell-based.
The subject of another assay is MDA-MB-231. As to the kind of experiment: Cytotoxicity against human MDA-MB-231 cells assessed as inhibition of cell growth incubated for 48 hrs by SRB assay. In kind it is functional, cell-based. The settings on record: MDA-MB-231, 48 h. (The SRB assay estimates cell density from bound dye.)
A further assay deals with PC-3. As to the kind of experiment: Cytotoxicity against human PC-3 cells assessed as inhibition of cell growth incubated for 48 hrs by SRB assay. In kind it is functional, cell-based. As to conditions: PC-3, 48 h.
The test system of assay [10] is MCF7. As to the kind of experiment: Cytotoxicity against human MCF7 cells assessed as inhibition of cell growth incubated for 48 hrs by SRB assay. The format is functional, cell-based. As to conditions: MCF7, 48 h.
Assay [11] concerns MG-63. As to the kind of experiment: Antiproliferative activity against human MG-63 cells assessed as inhibition of cell growth by MTT assay. The format is functional, cell-based.
Assay [12] relates to MG-63. As to the kind of experiment: Antiproliferative activity against human MG-63 cells assessed as reduction in cell viability by SRB assay. In kind it is functional, cell-based.
A further assay relates to A2780. The assay is described as follows: Cytotoxicity against human A2780 cells assessed as inhibition of cell growth incubated for 96 hrs by SRB assay. The format is toxicity, cell-based. The settings on record: A2780, 96 h.

pEC50, pIC50: −log10 of the molar value. ≈ marks a conversion by molar mass, not a printed value. Some results are limits rather than exact numbers.

`Cc1cc(=O)c2c(O)cc(OC[C@@H]3CO3)cc2o1`: the negative logarithm of the IC50 (pIC50) (in general, the negative decadic logarithm of the IC50, by convention in mol/L) is 4.76 in the assay on HCT-15; 5.12 with DU-145; 5.10 with K562; 4.44 in the assay on MCF7 [1]; 4.92 in the assay on HeLa.
In the case of `C/C1=C\CC2(OC2(C)C)C(=O)C/C(C)=C/CC1` (stereo unspecified), in the assay on Hyalomma lusitanicum, the LD90 came out at 2.43 mg/mL and the LC50 was found to be 1210 µg/mL (≈ 5160 µM).
For `Cc1cc(=O)c2c(OCC3CO3)cc(OCC3CO3)cc2o1` (stereo unspecified), the pIC50 in the assay with HCT-15 was 4.92; in the assay on DU-145, 5.14; with K562, 5.20; with MCF7 [1], 5.19; in the assay with HeLa, 5.27.
Turning to `C[C@@H]1C[C@H]2OC(=O)[C@@H](C)[C@H]2[C@H](O)[C@]2(C)C(=O)C3OC3[C@@H]12` (stereo partly specified), in the assay with HEp-2, the EC50 came to 0.11 µg/mL (≈ 0.392 µM).
Consider `Cc1cc(=O)c2c(OC[C@H]3CO3)cc(OC[C@H]3CO3)cc2o1`, for which the negative-log IC50 (pIC50) with HCT-15 was 3.64; with DU-145, 4.81; with K562, 5.10; in the assay on MCF7 [1], 3.66; in the assay with HeLa, 4.94.
For the compound `Fc1ccc([C@]23CC[C@](c4ccc(F)cc4)(OO2)[C@H]2O[C@H]23)cc1`, the pIC50 in the assay with Plasmodium falciparum [2] was less than 5.00; with Plasmodium falciparum [3] it was 8.00; in the assay with Plasmodium falciparum [4], less than 5.00; with Plasmodium falciparum [5] it was 7.10; in the assay on Plasmodium falciparum [6], 8.00; in the assay on Plasmodium falciparum [7] it was 8.00. For the same compound, the pIC50 with Plasmodium falciparum [8] is 7.10.
As for `C[C@@H]1C[C@H]2OC(=O)C(C3CO3)[C@H]2[C@H](O)[C@]2(C)C(=O)C3OC3[C@@H]12` (stereo partly specified), in the assay on HEp-2, the EC50 was found to be 0.11 µg/mL (≈ 0.357 µM).
On to `Cc1cc(=O)c2c(O)cc(OCC3CO3)cc2o1` (stereo unspecified), for which the pIC50 with HCT-15 is 4.74; in the assay on DU-145, 4.68; with K562, 3.84; with MCF7 [1], 4.87; in the assay on HeLa, 4.75.
On to `COc1ccc2c(c1)C(=O)C1OC1(C)C2=O` (stereo unspecified), for which, in assay [9], the negative logarithm of the EC50 (pEC50) (commonly the EC50 on a negative log10 scale, so that one unit is a factor of ten) was 5.46.
Regarding `CC(C)=C1C/C=C(\C)CCCC2(C)OC2C1=O` (stereo unspecified), in the assay with Hyalomma lusitanicum, the LD90 was determined as 2.98 mg/mL and the LC50 was determined as 2320 µg/mL (≈ 9900 µM).
As to `C[C@]12CC[C@H]3[C@@H](C[C@@H]4O[C@@]45C[C@@H](O)CC[C@]35C)[C@@H]1CC(=O)OC2`, the pIC50 in the assay with MDA-MB-231 was 4.40.
In the case of `Cc1cccc([C@]23CC[C@](c4cccc(C)c4)(OO2)[C@H]2O[C@H]23)c1`, the negative logarithm of the IC50 (pIC50) was less than 5.00 in the assay on Plasmodium falciparum [2]; 8.00 in the assay on Plasmodium falciparum [3]; less than 5.00 in the assay on Plasmodium falciparum [4]; 7.10 in the assay with Plasmodium falciparum [5]; 8.00 in the assay on Plasmodium falciparum [6]; 8.00 in the assay with Plasmodium falciparum [7]. Further, the negative-log IC50 (pIC50) in the assay on Plasmodium falciparum [8] was 7.10.
`C[C@]12CC[C@H]3[C@@H](C=CC4=CC(=O)[C@@H]5O[C@@H]5[C@@]43C)[C@@H]1CC(=O)OC2`: the negative logarithm of the IC50 (pIC50) is less than 4.00 with PC-3, 4.79 with MDA-MB-231 and less than 4.00 in the assay with MCF7 [10].
As for `CC1=CCC[C@]2(C)CC(=O)C3(C[C@@H]12)OC3(C)C` (stereo partly specified), in the assay on Hyalomma lusitanicum, the LD90 was found to be 1.91 mg/mL and the LC50 is 230 µg/mL (≈ 981 µM).
As for `C[C@@H]1C[C@H]2OC(=O)C(CN(C)C)[C@H]2[C@H](O)[C@]2(C)C(=O)C3OC3[C@@H]12` (stereo partly specified), the EC50 with HEp-2 was determined as 0.11 µg/mL (≈ 0.34 µM).
Consider `C[C@@H]1CC[C@@H]([C@@]2(C)CO2)[C@H](OCc2ccccc2)C1`, for which the negative-log IC50 (pIC50) with MG-63 [11] and with MG-63 [12] was 4.00 in each case.
Regarding `Cc1cc(=O)c2c(OC[C@H]3CO3)cc(OC[C@@H]3CO3)cc2o1`, the negative logarithm of the IC50 (pIC50) was 5.02 with HCT-15; 3.20 with DU-145; 7.40 in the assay with K562; 5.73 with MCF7 [1]; 5.75 in the assay with HeLa.
Turning to `C=C1C(=O)O[C@@H]2[C@H]3C(C)=CC[C@@]34O[C@@]4(C)CC[C@@H]12` [ARGLABIN], the pIC50 with A2780 was 4.90.
As for `CC[C@@]1(O)C(=O)OCc2c1cc1n(c2=O)Cc2cc3ccccc3nc2-1` [CAMPTOTHECIN], the pIC50 is 5.80 in the assay on HCT-15; 5.70 in the assay with DU-145; 5.57 with K562; 5.55 with MCF7 [1]; 5.22 in the assay on HeLa.
